The results in this text go back to US9464084B2, “P2X7 modulators” (Janssen Pharmaceutica NV, priority 2013, dated 2016).

By IC50 is commonly meant the concentration that gives 50% inhibition. Broadly, the Ki is the dissociation constant of the complex between target and ligand, obtained from inhibition or displacement.

Test [1] addresses T1, P2X7 (Homo sapiens (Human), UniProt Q99572). As to the kind of experiment: P2X7 antagonism in human PBMCs (LPS + Bz-ATP induced IL-1β release, ELISA).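 On all read-outs here: PBMCs from donor human blood, with a further 1.5 h incubation of the cells in the assay.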 It counts as cell-based. The settings on record: LPS 30 ng/ml, Bz-ATP 0.5 mM; for PBMC 10 μM (% control): compound 10 μM; for PBMC 1 μM (% control): compound 1 μM. (In general: An ELISA detects its analyte on a solid surface through an enzyme-linked reagent.)

Test [2] has as its target T1, P2X7. Nature of the test: P2X7 antagonism in human whole blood (LPS + Bz-ATP induced IL-1β release, ELISA). The settings on record: LPS 30 ng/ml, Bz-ATP 1 mM. The test is classed as cell-based.
Protocol: Human blood was collected using a blood donor program. PBMCs were isolated from blood using a Ficoll density gradient technique. Briefly, blood was laid on Ficoll solution and centrifuged at RT for 20 minutes at 2000 rpm. The buffy layer (between red blood cells and plasma) was carefully collected by aspiration, washed with PBS and centrifuged again at 1500 rpm for 15 minutes. The resulting cell pellet was washed and plated on 96 well-plates for experiments. For the Mouse/Human Whole Blood experiments, 150 μl of either mouse or human blood was platted on 96 well-plates. Lipopolysaccharide (LPS) (30 ng/ml) was added to each well and incubated for 1 hour. Test compounds were then added and incubated for 30 minutes. The P2X7 agonist, 2′(3′)-O-(4-benzoylbenzoyl) adenosine 5′ triphosphate (Bz-ATP) was then added at a final concentration of 0.5 mM (PBMC) or 1 mM (blood). Cells were incubated for an additional 1.5 hours. At that point, supernatant was collected and stored for IL-1β assay using manufacturer's protocol for enzyme-linked immunosorbent assay (ELISA). Data was expressed as percent control, where control is defined as the difference in IL-1β release in LPS+Bz-ATP samples and LPS only samples. Data was plotted as response (% control) versus concentration to generate IC50 values.
In the next test the target is rat P2X7 (Rattus norvegicus (Rat), UniProt Q64663). Nature of the test: Ca2+ flux (FLIPR) in 1321N1 cells expressing recombinant rat P2X7 channel.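 Further: Calcium-4 dye fluorescence change read 180 s after agonist addition, following 30 min cell preincubation with test compound.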 The note with it: 250 μM BzATP. It counts as cell-based.
Sequence of rat P2X7 (Q64663 whole entry): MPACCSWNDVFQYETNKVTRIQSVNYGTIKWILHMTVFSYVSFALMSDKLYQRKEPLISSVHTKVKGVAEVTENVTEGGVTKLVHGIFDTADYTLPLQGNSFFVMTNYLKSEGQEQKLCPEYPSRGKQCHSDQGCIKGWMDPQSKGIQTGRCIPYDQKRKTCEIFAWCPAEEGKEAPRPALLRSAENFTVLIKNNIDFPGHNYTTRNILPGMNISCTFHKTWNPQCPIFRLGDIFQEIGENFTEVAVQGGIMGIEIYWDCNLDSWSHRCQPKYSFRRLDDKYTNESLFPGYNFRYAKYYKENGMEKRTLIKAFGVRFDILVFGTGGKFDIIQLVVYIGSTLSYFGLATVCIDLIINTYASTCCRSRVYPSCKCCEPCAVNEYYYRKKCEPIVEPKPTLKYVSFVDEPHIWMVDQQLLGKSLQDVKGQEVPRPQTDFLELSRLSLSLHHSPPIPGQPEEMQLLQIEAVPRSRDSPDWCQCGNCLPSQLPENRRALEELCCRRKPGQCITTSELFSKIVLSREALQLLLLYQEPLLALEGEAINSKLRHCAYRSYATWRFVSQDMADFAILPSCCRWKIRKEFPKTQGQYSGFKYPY
For test [3], the target named is T1, P2X7. As to the kind of experiment: Radioligand binding, tritiated A-804598, human P2X7-1321N1 cell membranes.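 Further: ki obtained from the binding IC50 after correction for tracer concentration and tracer affinity.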 The settings on record: 1 hour at 4° C.
Protocol: On the day of the experiment, cell membrane preparations were made according to standard published methods. […] The assay was terminated by filtration (GF/B filters pre-soaked with 0.3% PEI) and washed with washing buffer (Tris-HCl 50 mM). The IC50 generated in the binding assay was corrected for tracer concentration and affinity of the tracer to derive at the affinity (Ki) of the test compounds.
Test [4] deals with T1, P2X7. Nature of the test: Ca2+ flux (FLIPR) in 1321N1 cells expressing recombinant human P2X7 channel.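 Further: Calcium-4 dye-loaded cells exposed to compound for 30 min before agonist addition, fluorescence change read 180 s after agonist.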 The test is classed as cell-based. The note with it: 250 μM BzATP. On the technique in general: Calcium assays in cells follow changes in intracellular calcium, usually with a dye or a luminescent sensor.
Protocol: (§1) Cells were seeded at a density of 25000 cells/well (96-well clear bottom black walled plates) in 100 μl volume/well. On the day of the experiment, cell plates were washed with assay buffer, containing (in mM): 130 NaCl, 2 KCl, 1 CaCl2, 1 MgCl2, 10 HEPES, 5 glucose; pH 7.40 and 300 mOs. After the wash, cells were loaded with the Calcium-4 dye (Molecular Device) and incubated in the dark for 60 minutes. Test compounds were prepared at 250× the test concentration in neat DMSO. Intermediate 96-well compound plates were prepared by transferring 1.2 μL of the compound into 300 μL of assay buffer. A further 3× dilution occurred when transferring 50 μL/well of the compound plate to 100 μL/well in the cell plate. Cells were incubated with test compounds and dye for 30 minutes. […] The fluorescence change was measured 180 seconds after adding the agonist.

T1 sequence (Q99572 whole entry): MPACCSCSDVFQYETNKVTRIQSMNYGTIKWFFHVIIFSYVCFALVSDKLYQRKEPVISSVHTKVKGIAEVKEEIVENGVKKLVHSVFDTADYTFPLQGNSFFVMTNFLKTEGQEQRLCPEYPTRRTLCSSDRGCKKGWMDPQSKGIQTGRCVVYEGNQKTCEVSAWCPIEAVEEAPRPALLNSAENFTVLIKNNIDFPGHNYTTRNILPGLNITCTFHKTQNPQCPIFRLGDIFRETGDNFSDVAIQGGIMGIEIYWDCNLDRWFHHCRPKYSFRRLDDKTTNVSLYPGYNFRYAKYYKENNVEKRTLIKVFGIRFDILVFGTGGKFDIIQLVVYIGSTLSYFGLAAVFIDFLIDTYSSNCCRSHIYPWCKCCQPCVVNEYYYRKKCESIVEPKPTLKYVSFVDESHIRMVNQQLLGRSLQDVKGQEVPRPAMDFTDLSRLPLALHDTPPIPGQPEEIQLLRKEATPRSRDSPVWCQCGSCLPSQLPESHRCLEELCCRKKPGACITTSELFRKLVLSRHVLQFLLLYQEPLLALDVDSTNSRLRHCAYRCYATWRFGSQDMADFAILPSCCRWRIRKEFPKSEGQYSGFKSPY
Protocol for rat P2X7: as §1

Consider `O=C(c1cccc(C(F)(F)F)c1Cl)N1CCc2c(nnn2-c2cc(F)ccn2)C1` [Example 131, (2-Chloro-3-(trifluoromethyl)phenyl)(1-(4-fluoropyridin-2-yl)-6,7-dihydro-1H-[1,2,3]triazolo[4,5-c]pyridin-5(4H)-yl)methanone], for which, on P2X7 [1], the “PBMC 10 μM (% control)” value is recorded as 8.3 % control. Besides, the IC50 amounted to 316 nM at P2X7 [2], 51.5 nM on rat P2X7 and 2.9 nM at P2X7 [4]. Moreover, the affinity at P2X7 [3], expressed as Ki, was 50.1 nM.
The matching figures for `O=C(c1ccc(F)c(Cl)c1Cl)N1CCc2c(nnn2-c2ccccn2)C1` [Example 130, (2,3-Dichloro-4-fluorophenyl)(1-(pyridin-2-yl)-6,7-dihydro-1H-[1,2,3]triazolo[4,5-c]pyridin-5(4H)-yl)methanone]: 3.7 % control, 501 nM, 154 nM, 3.6 nM and 50.1 nM.
Regarding `O=C(c1cccc(C(F)(F)F)c1F)N1CCc2c(nnn2-c2ccccn2)C1` [Example 123, (2-Fluoro-3-(trifluoromethyl)phenyl)(1-(pyridin-2-yl)-6,7-dihydro-1H-[1,2,3]triazolo[4,5-c]pyridin-5(4H)-yl)methanone], the “PBMC 1 μM (% control)” value on P2X7 [1] came out at 22.0 % control. For the same compound, the concentration for half-maximal inhibition (IC50) at rat P2X7 turned out to be 1000 nM; at P2X7 [4], 50.1 nM. On P2X7 [3], this compound showed an inhibitory constant (Ki) of 63.1 nM.
In the case of `Cc1cccc(-n2nnc3c2CCN(C(=O)c2cccc(C(F)(F)F)c2Cl)[C@H]3C)n1` (single isomer, unassigned) [Example 227, (S*)-(2-chloro-3-(trifluoromethyl)phenyl)(4-methyl-1-(6-methylpyridin-2-yl)-6,7-dihydro-1H-[1,2,3]triazolo[4,5-c]pyridin-5(4H)-yl)methanone], the “PBMC 10 μM (% control)” value on P2X7 [1] was −0.4 % control. Besides, the figures for the half-inhibitory concentration (IC50) at rat P2X7 and at P2X7 [4] were 10.2 nM and 7.2 nM, respectively. For the same compound, the affinity at P2X7 [3], expressed as Ki, was 20 nM.
The matching figures for `O=C(c1cccc(C(F)(F)F)c1F)N1CCc2c(ncn2-c2ccn[nH]2)C1` [Example 59, 5-{[2-Fluoro-3-(trifluoromethyl)phenyl]carbonyl}-1-(1H-pyrazol-5-yl)-4,5,6,7-tetrahydro-1H-imidazo[4,5-c]pyridine]: 10.2 % control, 527 nM, 378 nM and 501 nM.
As for `O=C(c1cccc(C(F)(F)F)c1Cl)N1C=Cc2c(ncn2-c2cnccn2)C1` [Example 54, 5-{[2-Chloro-3-(trifluoromethyl)phenyl]carbonyl}-1-pyrazin-2-yl-4,5-dihydro-1H-imidazo[4,5-c]pyridine], the “PBMC 1 μM (% control)” value on P2X7 [1] turned out to be 8.6 % control. Further, the IC50 at rat P2X7 was determined as 4110 nM; on P2X7 [4], 198 nM. The affinity on P2X7 [3], expressed as Ki, was 43.7 nM.
For the compound `C[C@@H]1c2nnn(-c3ncccn3)c2CCN1C(=O)c1cccc(C(F)(F)F)c1F` (single isomer, unassigned) [Example 271, (R*)-(2-fluoro-3-(trifluoromethyl)phenyl)(4-methyl-1-(pyrimidin-2-yl)-6,7-dihydro-1H-[1,2,3]triazolo[4,5-c]pyridin-5(4H)-yl)methanone], the “PBMC 10 μM (% control)” value on P2X7 [1] is listed as −3.7 % control. In addition, the values for the IC50 at rat P2X7 and on P2X7 [4] were 11.1 nM and 3.3 nM, respectively. On P2X7 [3], this compound yielded an inhibition constant (Ki) of 5.9 nM.
Regarding `CC1c2nnn(-c3cnccn3)c2CCN1C(=O)c1cccc(C(F)(F)F)c1F` (centres unmarked) [Example 273, (2-fluoro-3-(trifluoromethyl)phenyl)(4-methyl-1-(pyrazin-2-yl)-6,7-dihydro-1H-[1,2,3]triazolo[4,5-c]pyridin-5(4H)-yl)methanone], at P2X7 [1], the “PBMC 10 μM (% control)” value is −2.1 % control. Further, the values for the IC50 on rat P2X7 and at P2X7 [4] were 83.2 nM and 7.6 nM, respectively. The same compound had an inhibition constant (Ki) at P2X7 [3] of 18.2 nM.
On to `Cc1ccnc(-n2nnc3c2CCN(C(=O)c2cccc(Cl)c2Cl)C3C)n1` (centres unmarked) [Example 225, (2,3-dichlorophenyl)(4-methyl-1-(4-methylpyrimidin-2-yl)-6,7-dihydro-1H-[1,2,3]triazolo[4,5-c]pyridin-5(4H)-yl)methanone], for which the “PBMC 10 μM (% control)” value on P2X7 [1] was −1.0 % control. Also, the IC50 on rat P2X7 came to 42.3 nM; on P2X7 [4], 6.2 nM. This compound also had a Ki on P2X7 [3] of 9.1 nM.
`C[C@H]1c2nnn(-c3cccc(F)n3)c2CCN1C(=O)c1cccc(C(F)(F)F)c1Cl` (single isomer, unassigned) [Example 147, (S*)-(2-Chloro-3-(trifluoromethyl)phenyl)(1-(6-fluoropyridin-2-yl)-4-methyl-6,7-dihydro-1H-[1,2,3]triazolo[4,5-c]pyridin-5(4H)-yl)methanone]: the “PBMC 10 μM (% control)” value on P2X7 [1] was −8.9 % control. For the same compound, the IC50 is 507 nM on rat P2X7 and 11.3 nM at P2X7 [4]. This compound gave an inhibitory constant (Ki) on P2X7 [3] of 39.8 nM.
For `CCc1nc2c(n1-c1ccccc1)CCN(C(=O)c1cccc(Cl)c1Cl)C2` [Example 332, (2,3-dichlorophenyl)(2-ethyl-1-phenyl-6,7-dihydro-1H-imidazo[4,5-c]pyridin-5(4H)-yl)methanone], on P2X7 [1], the “PBMC 10 μM (% control)” value is given as −9.5 % control. Further, the half-maximal inhibitory concentration (IC50) at rat P2X7 amounted to 3720 nM; on P2X7 [4] it was 217 nM. Besides, the inhibition constant (Ki) at P2X7 [3] worked out at 631 nM.
On to `O=C(c1cccc(Cl)c1Cl)N1CCc2c(nnn2-c2ncccn2)C1` [Example 67, 5-[(2,3-Dichlorophenyl)carbonyl]-1-pyrimidin-2-yl-4,5,6,7-tetrahydro-1H-[1,2,3]triazolo[4,5-c]pyridine], for which the “PBMC 10 μM (% control)” value at P2X7 [1] worked out at 6.5 % control. Further, the half-inhibitory concentration (IC50) came out at 158 nM at P2X7 [2], 78.9 nM on rat P2X7 and 3 nM at P2X7 [4]. Moreover, on P2X7 [3], the inhibition constant (Ki) was 7.9 nM.
Regarding `O=C(c1cccc(C(F)(F)F)c1Cl)N1CCc2c(nnn2-c2ccn[nH]2)C1` [Example 68, 5-{[2-Chloro-3-(trifluoromethyl)phenyl]carbonyl}-1-(1H-pyrazol-5-yl)-4,5,6,7-tetrahydro-1H-[1,2,3]triazolo[4,5-c]pyridine], the “PBMC 10 μM (% control)” value on P2X7 [1] was found to be 12.9 % control. The half-inhibitory concentration (IC50) at rat P2X7 was 184 nM; at P2X7 [4], 16.9 nM. Moreover, on P2X7 [3], the inhibition constant (Ki) was 18.2 nM.
Take `O=C(c1cccc(Cl)c1Cl)N1CCc2c(nnn2-c2cnccn2)C1` [Example 70, 5-[(2,3-Dichlorophenyl)carbonyl]-1-pyrazin-2-yl-4,5,6,7-tetrahydro-1H-[1,2,3]triazolo[4,5-c]pyridine]: the “PBMC 10 μM (% control)” value on P2X7 [1] was 10.6 % control. The values for the IC50 on P2X7 [2], at rat P2X7 and at P2X7 [4] were 501 nM, 1330 nM and 7.5 nM, respectively. At P2X7 [3], this compound came in with an inhibition constant Ki of 12.6 nM.
As to `CC1c2nnn(-c3cc[nH]n3)c2C=CN1C(=O)c1cccc(C(F)(F)F)c1Cl` (centres unmarked) [Example 86, 5-{[2-Chloro-3-(trifluoromethyl)phenyl]carbonyl}-4-methyl-1-(1H-pyrazol-3-yl)-4,5-dihydro-1H-[1,2,3]triazolo[4,5-c]pyridine], the “PBMC 10 μM (% control)” value at P2X7 [1] is 13.0 % control. Besides, the IC50 turned out to be 136 nM on rat P2X7 and 12.9 nM on P2X7 [4]. Moreover, the inhibition constant Ki on P2X7 [3] worked out at 39.8 nM.
The matching figures for `CC1Cc2c(nnn2-c2ccccn2)CN1C(=O)c1ccc(F)c(Cl)c1Cl` (centres unmarked) [Example 121, 5-[(2,3-Dichloro-4-fluorophenyl)carbonyl]-6-methyl-1-pyridin-2-yl-4,5,6,7-tetrahydro-1H-[1,2,3]triazolo[4,5-c]pyridine]: −0.2 % control, 6.5 nM, 3.2 nM and 11.2 nM.
Regarding `O=C(c1cccc(C(F)(F)F)c1F)N1CCc2c(nnn2-c2ncccn2)C1` [Example 66, 5-{[2-Fluoro-3-(trifluoromethyl)phenyl]carbonyl}-1-pyrimidin-2-yl-4,5,6,7-tetrahydro-1H-[1,2,3]triazolo[4,5-c]pyridine], on P2X7 [1], the “PBMC 10 μM (% control)” value stood at 2.7 % control. Also, the 50% inhibitory concentration (IC50) came out at 363 nM on P2X7 [2], 206 nM at rat P2X7 and 17.4 nM on P2X7 [4]. For the same compound, at P2X7 [3], the Ki worked out at 15.8 nM.
For the compound `CC1c2nnn(-c3ncc(F)cn3)c2CCN1C(=O)c1cccc(Cl)c1Cl` (centres unmarked) [Example 174, (2,3-Dichlorophenyl)(1-(5-fluoropyrimidin-2-yl)-4-methyl-6,7-dihydro-1H-[1,2,3]triazolo[4,5-c]pyridin-5(4H)-yl)methanone], the “PBMC 10 μM (% control)” value on P2X7 [1] is given as 4.2 % control. Also, the half-inhibitory concentration (IC50) at rat P2X7 turned out to be 1680 nM; on P2X7 [4], 3.3 nM. The affinity on P2X7 [3] corresponds to a Ki of 50.1 nM.
The matching figures for `O=C(c1cccc(C(F)(F)F)c1Cl)N1CCc2c(-c3cnccn3)n[nH]c2C1` [Example 97, 6-{[2-Chloro-3-(trifluoromethyl)phenyl]carbonyl}-3-pyrazin-2-yl-4,5,6,7-tetrahydro-2H-pyrazolo[3,4-c]pyridine]: 12.7 % control, 2290 nM, 4.5 nM and 20 nM.
Consider `CC1CN(C(=O)c2cccc(C(F)(F)F)c2Cl)Cc2nnn(-c3ccc(F)cc3)c21` (centres unmarked) [Example 246, (2-Chloro-3-(trifluoromethyl)phenyl)(1-(4-fluorophenyl)-7-methyl-6,7-dihydro-1H-[1,2,3]triazolo[4,5-c]pyridin-5(4H)-yl)methanone], for which, at P2X7 [1], the “PBMC 10 μM (% control)” value is recorded as −3.1 % control. In addition, the IC50 was 6530 nM on rat P2X7 and 230 nM at P2X7 [4]. The compound also displayed a Ki at P2X7 [3] of 174 nM.
On to `CCOC(=O)C1c2ncn(-c3cnccn3)c2CCN1C(=O)c1cccc(Cl)c1Cl` (centres unmarked) [Example 29, Ethyl 5-[(2,3-dichlorophenyl)carbonyl]-1-pyrazin-2-yl-4,5,6,7-tetrahydro-1H-imidazo[4,5-c]pyridine-4-carboxylate], for which the “PBMC 1 μM (% control)” value at P2X7 [1] was 34.7 % control. For the same compound, the results for the concentration for half-maximal inhibition (IC50) on rat P2X7 and at P2X7 [4] were 2070 nM and 79.8 nM, respectively. The compound also had an inhibition constant (Ki) on P2X7 [3] of 38 nM.
